For eleven compounds, IC50 and melting point results are on record in patent publication US7115621B2, “Chemical compounds” (Lilly Icos LLC, priority 2001, dated 2006).

By IC50 is commonly meant the concentration at which inhibition is half-maximal. One may read the melting point as the temperature, or range, at which the solid turns liquid.

One data set deals with recombinant human PDE5 (Homo sapiens, UniProt O76074). The data set can be described thus: Inhibitory effect on cGMP-PDE, one-step assay, human recombinant PDE5. The format is biochemical. As to conditions: Table 1, Examples. As for the experimental part: The compounds of structural formula (I) were tested for an ability to inhibit PDE5. The ability of a compound to inhibit PDE5 activity is related to the IC50 value for the compound, i.e., the concentration of inhibitor required for 50% inhibition of enzyme activity. The IC50 value for compounds of structural formula (I) were determined using recombinant human PDE5.
Recombinant production of human PDE1B, PDE2, PDE4A, PDE4B, PDE4C, PDE4D, PDE5, and PDE7 was carried out similarly to that described in Example 7 of U.S. Pat. No. 5,702,936, incorporated herein by reference, except that the yeast transformation vector employed, which is derived from the basic ADH2 plasmid described in Price et al., Methods in Enzymology, 185, pp. 308–318 (1990), incorporated yeast ADH2 promoter and terminator sequences and the Saccharomyces cerevisiae host was the protease-deficient strain BJ2-54 deposited on Aug. 31, 1998 with the American Type Culture Collection, Manassas, Virginia, under accession number ATCC 74465. Transformed host cells were grown in 2×SC-leu medium, pH 6.2, with trace metals, and vitamins. After 24 hours, YEP medium-containing glycerol was added to a final concentration of 2×YET/3% glycerol. Approximately 24 hr later, cells were harvested, washed, and stored at −70° C.
Phosphodiesterase activity of the preparations was determined as follows. PDE assays utilizing a charcoal separation technique were performed essentially as described in Loughney et al. (1996). In this assay, PDE activity converts [32P]cAMP or [32P]cGMP to the corresponding [32P]5′-AMP or [32P]5′-GMP in proportion to the amount of PDE activity present. The [32P]5′-AMP or [32P]5′-GMP then was quantitatively converted to free [32P]phosphate and unlabeled adenosine or guanosine by the action of snake venom 5′-nucleotidase. […] The assay was performed at 30° C. in a 100 μL reaction mixture containing (final concentrations) 40 mM Tris HCl (pH 8.0), 1 μM ZnSO4, 5 mM MgCl2, and 0.1 mg/mL bovine serum albumin (BSA). PDE enzyme was present in quantities that yield <30% total hydrolysis of substrate (linear assay conditions). The assay was initiated by addition of substrate (1 mM [32P]cAMP or cGMP), and the mixture was incubated for 12 minutes. Seventy-five (75) μg of Crotalus atrox venom then was added, and the incubation was continued for 3 minutes (15 minutes. total). The reaction was stopped by addition of 200 μL of activated charcoal (25 mg/mL suspension in 0.1 M NaH2PO4, pH 4). After centrifugation (750×g for 3 minutes) to sediment the charcoal, a sample of the supernatant was taken for radioactivity determination in a scintillation counter and the PDE activity was calculated.
Cell pellets (29 g) were thawed on ice with an equal volume of Lysis Buffer (25 mM Tris HCl, pH 8, 5 mM MgCl2, 0.25 mM DTT, 1 mM benzamidine, and 10 μM ZnSO4). Cells were lysed in a Microfluidizer® (Microfluidics Corp.) using nitrogen at 20,000 psi. The lysate was centrifuged and filtered through 0.45 μm disposable filters. The filtrate was applied to a 150 mL column of Q SEPHAROSE® FastFlow (Pharmacia). The column was washed with 1.5 volumes of Buffer A (20 mM Bis-Tris Propane, pH 6.8, 1 mM MgCl2, 0.25 mM DTT, 10 μM ZnSO4) and eluted with a step gradient of 125 mM NaCl in Buffer A followed by a linear gradient of 125–1000 mM NaCl in Buffer A. Active fractions from the linear gradient were applied to a 180 mL hydroxyapatite column in Buffer B (20 mM Bis-Tris Propane (pH 6.8), 1 mM MgCl2, 0.25 mM DTT, 10 μM ZnSO4, and 250 mM KCl). After loading, the column was washed with 2 volumes of Buffer B and eluted with a linear gradient of 0–125 mM potassium phosphate in Buffer B. Active fractions were pooled, precipitated with 60% ammonium sulfate, and resuspended in Buffer C (20 mM Bis-Tris Propane, pH 6.8, 125 mM NaCl, 0.5 mM DTT, and 10 μM ZnSO4). The pool was applied to a 140 mL column of SEPHACRYL® S-300 HR and eluted with Buffer C. Active fractions were diluted to 50% glycerol and stored at −20° C. […]

For the next data set, the target named is T1, PDE5 (bovine aorta) (Bos taurus, UniProt Q28156).
T1 construct: from tissue; host or cells: bovine aorta
As to the kind of experiment: Inhibitory effect on cGMP-PDE, one-step assay, enzyme from bovine aorta. The format is biochemical. Particulars: Table 1, Examples; footnote 1) vs. bovine aorta.

In the case of `CN(C)C(=O)[C@H]1Cc2c([nH]c3ccccc23)[C@@H](c2ccc3c(c2)OCO3)N1C(=O)/C=C/c1ccccc1` [Example 1, (1R,3R)-1-benzo[1,3]dioxol-5-yl-2-(3-phenylacryloyl)-2,3,4,9-tetrahydro-1H-β-carboline-3-carboxylic acid dimethylamide], the melting point was 175 to 178 °C. The IC50 at recombinant human PDE5 amounted to 44 nM.
In the case of `COC(=O)[C@H]1Cc2c([nH]c3ccccc23)[C@@H](c2ccc3c(c2)OCO3)N1C(=O)Oc1ccc([N+](=O)[O-])cc1` [Example 3, (−)-(1R,3R)-1-Benzo[1,3]dioxol-5-yl-1,3,4,9-tetrahydro-beta-carboline-2,3-dicarboxylic acid 3-methyl ester 2-(4-nitrophenyl)ester], the melting point was in the range of 175 to 187 °C. For the same compound, the IC50 at recombinant human PDE5 amounted to 241 nM.
`CCCCNC(=O)N1[C@@H](c2cccnc2)c2[nH]c3ccccc3c2C[C@H]1C(=O)OCC` [Example 4] had an IC50 against PDE5 (bovine aorta) of 200 nM.
Still for that read-out and setting: next, `COC(=O)CN1[C@@H](c2ccc(OC)cc2)c2[nH]c3ccccc3c2C[C@H]1C(=O)NCc1ccccc1` [Example 5]: 490 nM.
Take `COC(=O)[C@@H]1Cc2c([nH]c3ccccc23)[C@H](c2ccc3c(c2)OCO3)N1C` [Example 6]: at recombinant human PDE5, the IC50 stood at 230 nM.
Compound `COc1ccc([C@@H]2c3[nH]c4ccccc4c3C[C@@H](C(=O)NCc3ccccc3)N2C(C)=O)cc1` [Example 7] showed an IC50 against PDE5 (bovine aorta) of 1000 nM.
The compound `CCCNC(=O)[C@H]1Cc2c([nH]c3ccccc23)[C@@H](c2ccc3c(c2)OCO3)N1C(C)=O` [Example 8, (1R)-(+)-2-acetyl-1-benzo[1,3]dioxol-5-yl-2,3,4,9-tetrahydro-1H-β-carboline-3-carboxylic acid propylamide] showed a melting point of 163 to 165 °C. Further, on recombinant human PDE5, the IC50 stood at 502 nM.
In the case of `CC(=O)N1[C@H](c2ccc3c(c2)OCO3)c2[nH]c3ccccc3c2C[C@@H]1C(=O)N1CCOCC1` [Example 9, (1R)-(+)-1-[benzo[1,3]dioxol-5-yl-3-(morpholine-4-carbonyl)-1,3,4,9-tetrahydro-β-carbolin-2-yl]-ethanone], the IC50 at recombinant human PDE5 amounted to 261 nM.
Compound `CCCCNC(=O)[C@H]1Cc2c([nH]c3ccccc23)[C@@H](c2ccc3c(c2)OCO3)N1C(=O)/C=C/c1ccccc1` [Example 11, (1R,3R)-(+)-1-benzo[1,3]dioxol-5-yl-2-(3-phenylacryloyl)-2,3,4,9-tetrahydro-1H-β-carboline-3-carboxylic acid butylamide] registered a melting point of 114 to 117 °C. In addition, the IC50 on recombinant human PDE5 was 629 nM.
Turning to `CNC(=O)[C@H]1Cc2c([nH]c3ccccc23)[C@@H](c2ccc3c(c2)OCO3)N1C(=O)/C=C/c1ccccc1` [Example 12], the IC50 on recombinant human PDE5 was found to be 30 nM.
As to `CNC(=O)[C@H]1Cc2c([nH]c3ccccc23)[C@@H](c2ccc3c(c2)OCO3)N1C(=O)/C=C/c1ccc(Cl)cc1` [Example 13], on recombinant human PDE5, the IC50 was determined as 420 nM.
